Results taken from PubChem BioAssay AID248 (DTP/NCI, 2004).
Several values for one entry are separate records, joined by “and”; a condition that tells them apart may be missing. Equal entries are not always repeated. Inconclusive results and toxic doses are left out. No stated cut-off is given here; in the data, active means T/C of 150% or more; inactive means T/C below 125%.

Test system: L1210 leukemia ip in BDF1 mice, survival T/C
Experiment: NCI In Vivo Anticancer Drug Screen. Data for tumor model L1210 Leukemia (intraperitoneal) in B6D2F1 (BDF1) mice
Details: endpoint: mean survival time, higher = longer survival
How it was run: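 In this screen, tumor-bearing mice given compound are compared to those given vehicle, and their survival values are reported as a treated-to-control quotient.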

Measured: T/C

O=C1CN=C(c2ccc[nH]2)c2cc(Cl)ccc2N1
active: dose: 50.0 mg/kg/injection, schedule: Q01DX Z (ip), vehicle: carboxymethylcellulose (CMC) 155 % of control | dose: 50.0 mg/kg/injection, schedule: Q03HX024 (ip), vehicle: other 150 % of control | dose: 75.0 mg/kg/injection, schedule: Q01DX Z (ip), vehicle: carboxymethylcellulose (CMC) 174 % of control
inactive: dose: 1.56 mg/kg/injection, schedule: Q03HX008 (oral), vehicle: saline with Tween-80 98 % of control | dose: 1.56 mg/kg/injection, schedule: Q03HX016 (oral), vehicle: saline with Tween-80 103 % of control | dose: 1.56 mg/kg/injection, schedule: Q03HX024 (oral), vehicle: saline with Tween-80 98 % of control | dose: 3.12 mg/kg/injection, schedule: Q03HX008 (oral), vehicle: saline with Tween-80 97 % of control | dose: 3.12 mg/kg/injection, schedule: Q03HX016 (oral), vehicle: saline with Tween-80 102 % of control | dose: 3.12 mg/kg/injection, schedule: Q03HX024 (oral), vehicle: saline with Tween-80 100 % of control | dose: 6.25 mg/kg/injection, schedule: Q03HX008 (oral), vehicle: saline with Tween-80 98 % of control | dose: 6.25 mg/kg/injection, schedule: Q03HX016 (ip), vehicle: other 105 % of control | dose: 6.25 mg/kg/injection, schedule: Q03HX016 (oral), vehicle: saline with Tween-80 98 % of control | dose: 6.25 mg/kg/injection, schedule: Q03HX024 (ip), vehicle: other 114 % of control | dose: 6.25 mg/kg/injection, schedule: Q03HX024 (oral), vehicle: saline with Tween-80 97 % of control | dose: 7.13 mg/kg/injection, schedule: Q01DX009 (ip), vehicle: clinical formulation 102 % of control | dose: 12.5 mg/kg/injection, schedule: Q03HX008 (oral), vehicle: saline with Tween-80 102 % of control | dose: 12.5 mg/kg/injection, schedule: Q03HX016 (ip), vehicle: other 104 % of control | dose: 12.5 mg/kg/injection, schedule: Q03HX016 (oral), vehicle: saline with Tween-80 97 % of control | dose: 12.5 mg/kg/injection, schedule: Q03HX024 (ip), vehicle: other 114 % of control | dose: 12.5 mg/kg/injection, schedule: Q03HX024 (oral), vehicle: saline with Tween-80 101 % of control | dose: 14.2 mg/kg/injection, schedule: Q01DX009 (ip), vehicle: clinical formulation 103 % of control | dose: 25.0 mg/kg/injection, schedule: Q01DX006 (iv), vehicle: other 100 % of control | dose: 25.0 mg/kg/injection, schedule: Q03HX008 (oral), vehicle: saline with Tween-80 100 % of control and 101 % of control | dose: 25.0 mg/kg/injection, schedule: Q03HX016 (ip), vehicle: other 112 % of control | dose: 25.0 mg/kg/injection, schedule: Q03HX016 (oral), vehicle: saline with Tween-80 95 % of control and 103 % of control | dose: 25.0 mg/kg/injection, schedule: Q03HX024 (oral), vehicle: saline with Tween-80 95 % of control and 98 % of control | dose: 33.0 mg/kg/injection, schedule: Q01DX015 (ip), vehicle: other 123 % of control | dose: 33.0 mg/kg/injection, schedule: Q01DX Z (ip), vehicle: carboxymethylcellulose (CMC) 120 % of control | dose: 34.0 mg/kg/injection, schedule: Q01DX009 (ip), vehicle: other 105 % of control | dose: 50.0 mg/kg/injection, schedule: Q01DX001 (iv), vehicle: other 101 % of control | dose: 50.0 mg/kg/injection, schedule: Q01DX006 (iv), vehicle: other 102 % of control | dose: 50.0 mg/kg/injection, schedule: Q01DX009 (ip), vehicle: Klucel (hydroxypropylcellulose) (HPC) 103 % of control | dose: 50.0 mg/kg/injection, schedule: Q01DX009 (ip), vehicle: water 118 % of control | dose: 50.0 mg/kg/injection, schedule: Q01DX015 (ip), vehicle: other 121 % of control | dose: 50.0 mg/kg/injection, schedule: Q03HX008 (oral), vehicle: saline with Tween-80 108 % of control | dose: 50.0 mg/kg/injection, schedule: Q03HX016 (ip), vehicle: other 122 % of control | dose: 50.0 mg/kg/injection, schedule: Q03HX016 (oral), vehicle: saline with Tween-80 112 % of control | dose: 50.0 mg/kg/injection, schedule: Q03HX024 (oral), vehicle: saline with Tween-80 110 % of control | dose: 50.0 mg/kg/injection, schedule: Q04DX003 (ip), vehicle: other 108 % of control | dose: 50.0 mg/kg/injection, schedule: Q08DX002 (ip), vehicle: other 96 % of control | dose: 52.0 mg/kg/injection, schedule: Q01DX009 (ip), vehicle: other 98 % of control | dose: 80.0 mg/kg/injection, schedule: Q01DX009 (ip), vehicle: other 108 % of control | dose: 100.0 mg/kg/injection, schedule: Q01DX001 (ip), vehicle: other 98 % of control | dose: 100.0 mg/kg/injection, schedule: Q01DX001 (iv), vehicle: other 101 % of control | dose: 100.0 mg/kg/injection, schedule: Q01DX001 (oral), vehicle: saline with Tween-80 102 % of control | dose: 100.0 mg/kg/injection, schedule: Q01DX006 (iv), vehicle: other 110 % of control | dose: 100.0 mg/kg/injection, schedule: Q01DX009 (ip), vehicle: Klucel (hydroxypropylcellulose) (HPC) 105 % of control | dose: 100.0 mg/kg/injection, schedule: Q01DX009 (oral), vehicle: saline with Tween-80 114 % of control
